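Five compound concentrations were applied to cells in 96-well plates for 48 hours; endpoints were derived by simple linear interpolation of the resulting dose-response curve. GI50 marks 50% less growth. TGI: total growth inhibition.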
Assays:
Test in all cases: growth of human tumour cells (NCI), 48 h
[1] = system: TK-10 renal
[2] = system: OVCAR-8 ovarian
[3] = system: HCC-2998 colon
[4] = system: CCRF-CEM leukemia
[5] = system: 786-0 renal
[6] = system: LOX IMVI melanoma
[7] = system: SF-295 CNS
[8] = system: RPMI-8226 leukemia
[9] = system: SW-620 colon
[10] = system: HOP-62 NSCLC

Structure (SMILES)	TGI [1] [µM]	TGI [2] [µM]	TGI [3] [µM]	TGI [4] [µM]	TGI [5] [µM]	TGI [6] [µM]	TGI [7] [µM]	TGI [8] [µM]	TGI [9] [µM]	TGI [10] [µM]	GI50 [1] [µM]	GI50 [2] [µM]	GI50 [4] [µM]	GI50 [5] [µM]	GI50 [6] [µM]	GI50 [10] [µM]	GI50 [7] [µM]	GI50 [8] [µM]	GI50 [9] [µM]	GI50 [3] [µM]
O=C1c2ccccc2-c2cc3ccccc3c(=O)n21	> 100	> 100	> 100	> 100	> 100	> 100	> 100	> 100	> 100	–	–	–	–	–	–	–	–	–	–	–
COc1ccc([Se]c2ccc(OC)cc2OC)c(OC)c1	> 100	> 100	–	> 100	> 100	> 100	33.7	> 100	> 100	–	–	–	–	–	–	–	–	–	–	–
CCOC(=O)/C=C1\Nc2ccccc2C(c2ccccc2)=NC1OC(C)=O (stereo not drawn)	–	> 100	> 100	> 100	> 100	> 100	> 100	> 100	> 100	> 100	–	–	–	–	–	–	–	–	–	–
O=c1c2ccccc2nc(-c2ccccc2)n1NCC1(O)OCC(O)C(O)C1O (stereo not drawn)	> 100	> 100	> 100	> 100	> 100	–	> 100	> 100	> 100	> 100	–	–	–	–	–	–	–	–	–	–
c1ccc2c(c1)CCCc1cc3ccccc3nc1-2	> 100	> 100	> 100	> 100	> 100	–	> 100	99.2	> 100	> 100	–	–	–	–	–	–	–	–	–	–
COc1c(O)c(OC)c(C(=O)/C=C/c2ccccc2)c(O)c1OC	> 100	38.1	> 100	> 100	> 100	87.2	> 100	> 100	66.2	–	–	–	–	–	–	–	–	–	–	–
O=C(/C=C/N1CCN(c2cccc(C(F)(F)F)c2)CC1)c1ccc(Cl)cc1Cl	87.3	83.4	–	> 100	39.8	47.1	32.4	70.8	> 100	35.4	30.1	28.5	49.6	20.8	22.7	19	14.7	25.9	38.8	–
Cc1ccc(NC(=O)CCC(=O)C2CC(=O)CC/C2=N\NC(=O)c2cc3ccccc3cc2O)cc1C (stereo not drawn)	> 100	> 100	50.1	58.3	> 100	–	> 100	> 100	> 100	> 100	–	–	–	–	–	–	–	–	–	–
C/C(=N\N(C)C)C(CN(C)C)C(c1ccccc1)c1c(O)c2ccccc2oc1=O (stereo not drawn)	> 100	> 100	> 100	> 100	> 100	> 100	> 100	> 100	> 100	–	–	–	–	–	–	–	–	–	–	–
CC1OC(=O)N(CCCC=C2SCCCS2)C1=O (stereo not drawn)	> 100	> 100	–	> 100	> 100	> 100	> 100	> 100	> 100	–	–	–	–	–	–	–	–	–	–	–
CCCC/C(=N\N=C(N)N)c1ccc(F)cc1	20.8	15.2	11	11.7	16.2	13.5	12.3	17.4	–	15.8	7.83	3.61	2.23	3.93	1.33	3.81	2.84	2.67	–	2.77
COc1ccc2c(c1O)[C@@]13C=C(O)C(=O)C=C1[C@@H](C2)N(C)CC3	> 100	> 100	> 100	> 100	> 100	> 100	> 100	> 100	–	> 100	–	–	–	–	–	–	–	–	–	–
CO[C@H]1C=C[C@]23c4cc5c(cc4CN(CC2O)[C@@H]3C1)OCO5 (stereo partly drawn)	> 100	38.5	16.7	–	16.5	21.3	4.14	> 100	> 100	–	–	–	–	–	–	–	–	–	–	–
CCC1OCCN1C(C)C (stereo not drawn)	> 100	> 100	> 100	> 100	> 100	> 100	> 100	> 100	> 100	–	–	–	–	–	–	–	–	–	–	–
N#Cc1c2c(c(N=[N+]=[N-])n3c1nc1ccccc13)CCCC2	5.76	3.09	25.8	–	3.53	3.52	4.94	6.85	4.31	31	–	–	–	–	–	–	–	–	–	–
COC(=O)c1cc(Nc2ccc(O)c3c2C(=O)c2c([N+](=O)[O-])ccc(O)c2C3=O)cc(C(=O)OC)c1	–	> 100	> 100	> 100	> 100	> 100	> 100	> 100	> 100	> 100	–	6.57	4.27	30.6	6.39	4.04	21.8	3.84	3.3	4.39
COc1cc2ccn3c4cc(OC)c(OC)cc4cc3c2cc1OC	> 100	> 100	> 100	> 100	> 100	–	> 100	> 100	> 100	> 100	–	–	–	–	–	–	–	–	–	–
COc1ccc(C[C@H]2C[C@@H](O)[C@@H](C)C/C=C/Cc3cccc(O)c3C(=O)O2)cn1	72.3	> 100	44.8	–	77.7	37.7	41.5	–	> 100	40.2	24.5	29.4	–	18	19.1	18.6	18	–	31.6	17.4
O=C1OCC(C(=O)c2cccc(O)c2)C1=O (stereo not drawn)	> 100	> 100	> 100	–	> 100	> 100	> 100	> 100	> 100	> 100	–	–	–	–	–	–	–	–	–	–
CC1(CC(=O)O)OC2CCCCCC2O1 (stereo not drawn) (tested in a mixture with another compound)	> 100	> 100	–	84.5	> 100	> 100	> 100	> 100	> 100	> 100	–	–	–	–	–	–	–	–	–	–
CC(C)c1ccc(/C=C(\NC(=O)c2ccccc2)c2nc3ccccc3[nH]2)cc1	> 100	86.9	–	> 100	> 100	> 100	–	45.2	> 100	–	–	–	–	–	–	–	–	–	–	–

Source: PubChem BioAssay (NCI)
